# In ChEMBL document CHEMBL3885881, “DrugMatrix”:
# Species: Rattus norvegicus
# Test: DrugMatrix - Regimen: Daily Repeat
# Type: toxicity, organism-based, Sprague-Dawley
# Set-up: regimen Daily Repeat, gender Male, age 6-8 weeks
# Details: in vivo, po, route oral GAVAGE, vehicle 100 % WATER; for ABSOLUTE BASOPHIL / ABSOLUTE EOSINOPHIL / ABSOLUTE LYMPHOCYTE / ABSOLUTE MONOCYTE / ABSOLUTE SEGMENTED NEUTROPHIL / BASOPHIL / EOSINOPHIL / ERYTHROCYTE COUNT / HEMATOCRIT / HEMOGLOBIN / LEUKOCYTE COUNT / LYMPHOCYTE / MEAN CORPUSCULAR HEMOGLOBIN / MEAN CORPUSCULAR HEMOGLOBIN CONCENTRATION / MEAN CORPUSCULAR VOLUME / MONOCYTE / NEUTROPHIL / NUCLEATED RED BLOOD CELLS / PLATELET COUNT: tissue Blood; for ALANINE AMINOTRANSFERASE / ALBUMIN / ALKALINE PHOSPHATASE / ASPARTATE AMINOTRANSFERASE / BLOOD UREA NITROGEN / CARBON DIOXIDE / CHLORIDE / CHOLESTEROL / CREATINE PHOSPHOKINASE / CREATININE / GLUCOSE / LACTATE DEHYDROGENASE / LIPASE / PHOSPHORUS / POTASSIUM / SODIUM / TOTAL BILIRUBIN / TOTAL PROTEIN / URIC ACID: tissue Plasma
# [1] = 31 mg/kg, 120 h, dose level Low, time 5 day
# [2] = 2629 mg/kg, 72 h, dose level High, time 3 day
# [3] = 2629 mg/kg, 120 h, dose level High, time 5 day
smiles,measurement,setting,value
Nc1ccc(S(=O)(=O)Nc2nccs2)cc1 [SULFATHIAZOLE],ABSOLUTE BASOPHIL,[1],0 CELLS/uL
same,ABSOLUTE EOSINOPHIL,[1],44 CELLS/uL
same,ABSOLUTE LYMPHOCYTE,[1],11208.67 CELLS/uL
same,ABSOLUTE MONOCYTE,[1],0 CELLS/uL
same,ABSOLUTE SEGMENTED NEUTROPHIL,[1],914 CELLS/uL
same,BASOPHIL,[1],0%
same,EOSINOPHIL,[1],0.33%
same,ERYTHROCYTE COUNT,[1],5.37 x10E6/uL
same,HEMATOCRIT,[1],32.6%
same,HEMOGLOBIN,[1],12.8 G/DL
same,LEUKOCYTE COUNT,[1],12.17 x10E3/uL
same,LYMPHOCYTE,[1],92%
same,MEAN CORPUSCULAR HEMOGLOBIN,[1],23.87 pg
same,MEAN CORPUSCULAR HEMOGLOBIN CONCENTRATION,[1],39.27 G/DL
same,MEAN CORPUSCULAR VOLUME,[1],60.87 fL
same,MONOCYTE,[1],0%
same,NEUTROPHIL,[1],7.67%
same,NUCLEATED RED BLOOD CELLS,[1],0 /100WBC
same,PLATELET COUNT,[1],967.33 x10E3/uL
same,ALANINE AMINOTRANSFERASE,[1],55 u/L
same,ALBUMIN,[1],3.97 G/DL
same,ALKALINE PHOSPHATASE,[1],332.33 u/L
same,ASPARTATE AMINOTRANSFERASE,[1],80.33 u/L
same,BLOOD UREA NITROGEN,[1],15.33 mg/dL
same,CARBON DIOXIDE,[1],26.67 mmol/L
same,CHLORIDE,[1],101.67 MEQ/L
same,CHOLESTEROL,[1],68.33 mg/dL
same,CREATINE PHOSPHOKINASE,[1],466 u/L
same,CREATININE,[1],0.16 mg/dL
same,GLUCOSE,[1],230.67 mg/dL
same,LACTATE DEHYDROGENASE,[1],161.67 u/L
same,LIPASE,[1],8.33 u/L
same,PHOSPHORUS,[1],12.43 mg/dL
same,POTASSIUM,[1],5.22 MEQ/L
same,SODIUM,[1],142.17 MEQ/L
same,TOTAL BILIRUBIN,[1],0.13 mg/dL
same,TOTAL PROTEIN,[1],5.83 G/DL
same,URIC ACID,[1],1.13 mg/dL
same,ABSOLUTE BASOPHIL,[2],0 CELLS/uL
same,ABSOLUTE EOSINOPHIL,[2],0 CELLS/uL
same,ABSOLUTE LYMPHOCYTE,[2],13130 CELLS/uL
same,ABSOLUTE MONOCYTE,[2],74.67 CELLS/uL
same,ABSOLUTE SEGMENTED NEUTROPHIL,[2],1895.33 CELLS/uL
same,BASOPHIL,[2],0%
same,EOSINOPHIL,[2],0%
same,ERYTHROCYTE COUNT,[2],6.25 x10E6/uL
same,HEMATOCRIT,[2],39.77%
same,HEMOGLOBIN,[2],15.4 G/DL
same,LEUKOCYTE COUNT,[2],15.1 x10E3/uL
same,LYMPHOCYTE,[2],87%
same,MEAN CORPUSCULAR HEMOGLOBIN,[2],24.67 pg
same,MEAN CORPUSCULAR HEMOGLOBIN CONCENTRATION,[2],38.77 G/DL
same,MEAN CORPUSCULAR VOLUME,[2],63.6 fL
same,MONOCYTE,[2],0.67%
same,NEUTROPHIL,[2],12.33%
same,NUCLEATED RED BLOOD CELLS,[2],0.33 /100WBC
same,PLATELET COUNT,[2],1369.33 x10E3/uL
same,ALANINE AMINOTRANSFERASE,[2],62 u/L
same,ALBUMIN,[2],3.93 G/DL
same,ALKALINE PHOSPHATASE,[2],291 u/L
same,ASPARTATE AMINOTRANSFERASE,[2],83 u/L
same,BLOOD UREA NITROGEN,[2],13.33 mg/dL
same,CARBON DIOXIDE,[2],23.67 mmol/L
same,CHLORIDE,[2],105.33 MEQ/L
same,CHOLESTEROL,[2],68.67 mg/dL
same,CREATINE PHOSPHOKINASE,[2],777 u/L
same,CREATININE,[2],0.18 mg/dL
same,GLUCOSE,[2],146.67 mg/dL
same,LACTATE DEHYDROGENASE,[2],269.33 u/L
same,LIPASE,[2],9.33 u/L
same,PHOSPHORUS,[2],12.5 mg/dL
same,POTASSIUM,[2],5.42 MEQ/L
same,SODIUM,[2],148.07 MEQ/L
same,TOTAL BILIRUBIN,[2],0.1 mg/dL
same,TOTAL PROTEIN,[2],5.7 G/DL
same,URIC ACID,[2],2.33 mg/dL
same,ABSOLUTE BASOPHIL,[3],0 CELLS/uL
same,ABSOLUTE EOSINOPHIL,[3],30.33 CELLS/uL
same,ABSOLUTE LYMPHOCYTE,[3],11698 CELLS/uL
same,ABSOLUTE MONOCYTE,[3],241.67 CELLS/uL
same,ABSOLUTE SEGMENTED NEUTROPHIL,[3],1363.33 CELLS/uL
same,BASOPHIL,[3],0%
same,EOSINOPHIL,[3],0.33%
same,ERYTHROCYTE COUNT,[3],6.23 x10E6/uL
same,HEMATOCRIT,[3],38.77%
same,HEMOGLOBIN,[3],14.67 G/DL
same,LEUKOCYTE COUNT,[3],13.33 x10E3/uL
same,LYMPHOCYTE,[3],87%
same,MEAN CORPUSCULAR HEMOGLOBIN,[3],23.53 pg
same,MEAN CORPUSCULAR HEMOGLOBIN CONCENTRATION,[3],37.83 G/DL
same,MEAN CORPUSCULAR VOLUME,[3],62.27 fL
same,MONOCYTE,[3],2%
same,NEUTROPHIL,[3],10.67%
same,NUCLEATED RED BLOOD CELLS,[3],0.33 /100WBC
same,PLATELET COUNT,[3],1447 x10E3/uL
same,ALANINE AMINOTRANSFERASE,[3],59.33 u/L
same,ALBUMIN,[3],4.2 G/DL
same,ALKALINE PHOSPHATASE,[3],266.67 u/L
same,ASPARTATE AMINOTRANSFERASE,[3],58 u/L
same,BLOOD UREA NITROGEN,[3],14.33 mg/dL
same,CARBON DIOXIDE,[3],21.33 mmol/L
same,CHLORIDE,[3],105 MEQ/L
same,CHOLESTEROL,[3],64.33 mg/dL
same,CREATINE PHOSPHOKINASE,[3],224.67 u/L
same,CREATININE,[3],0.24 mg/dL
same,GLUCOSE,[3],148.67 mg/dL
same,LACTATE DEHYDROGENASE,[3],185.33 u/L
same,LIPASE,[3],11.33 u/L
same,PHOSPHORUS,[3],9.7 mg/dL
same,POTASSIUM,[3],5.17 MEQ/L
same,SODIUM,[3],145.03 MEQ/L
same,TOTAL BILIRUBIN,[3],0.1 mg/dL
same,TOTAL PROTEIN,[3],6 G/DL
same,URIC ACID,[3],1.37 mg/dL
